Target: T1, EphA1 (P21709) (Homo sapiens, UniProt P21709)
T1 construct: purchased PamGene (PamChip PTK array, Upstream Kinase Analysis)
T1 sequence (P21709 26-976): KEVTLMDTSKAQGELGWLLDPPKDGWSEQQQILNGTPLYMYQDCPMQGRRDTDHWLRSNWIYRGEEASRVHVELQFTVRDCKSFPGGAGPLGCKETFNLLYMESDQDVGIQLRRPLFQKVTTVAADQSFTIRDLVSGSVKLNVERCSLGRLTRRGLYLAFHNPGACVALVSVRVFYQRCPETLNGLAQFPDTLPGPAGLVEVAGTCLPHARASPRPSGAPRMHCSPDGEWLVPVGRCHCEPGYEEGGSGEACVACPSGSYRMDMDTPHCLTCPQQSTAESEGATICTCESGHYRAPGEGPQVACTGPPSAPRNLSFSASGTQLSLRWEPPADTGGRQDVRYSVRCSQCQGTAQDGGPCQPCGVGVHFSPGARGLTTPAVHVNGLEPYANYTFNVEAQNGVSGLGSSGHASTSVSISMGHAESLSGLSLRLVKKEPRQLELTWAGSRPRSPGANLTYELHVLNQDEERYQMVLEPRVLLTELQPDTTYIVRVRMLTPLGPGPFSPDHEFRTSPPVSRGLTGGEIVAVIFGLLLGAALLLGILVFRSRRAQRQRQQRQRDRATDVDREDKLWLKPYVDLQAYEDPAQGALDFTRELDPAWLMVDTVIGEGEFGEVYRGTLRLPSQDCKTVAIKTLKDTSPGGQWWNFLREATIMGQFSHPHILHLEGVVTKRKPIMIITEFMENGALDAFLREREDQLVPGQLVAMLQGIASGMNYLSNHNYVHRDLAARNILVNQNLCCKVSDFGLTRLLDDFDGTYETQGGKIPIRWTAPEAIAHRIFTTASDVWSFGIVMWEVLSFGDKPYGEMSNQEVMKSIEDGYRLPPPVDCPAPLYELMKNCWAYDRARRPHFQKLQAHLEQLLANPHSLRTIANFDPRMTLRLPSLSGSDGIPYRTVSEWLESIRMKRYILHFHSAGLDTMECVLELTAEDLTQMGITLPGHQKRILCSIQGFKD
Assay: PamChip tyrosine kinase microarray
Type: biochemical
Conditions: 0.1 µM, HL60 lysate
Procedure, shortened: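 HL60 (AML) cell lysate was spiked with compound at 0.001, 0.01, 0.1, 1, 10 and 50 µM, or 2% v/v DMSO as control, then profiled in technical replicates on a tyrosine kinase peptide array of 196 phosphosites. Kinase activity was inferred from peptide-set changes using an upstream kinase tool.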

Structure (SMILES): COc1ccc(/C=C2\N=C(C)N(c3ccc(CC(=O)NCc4ccccc4)cc3)C2=O)cc1 [Compound 4c, (Z)-N-Benzyl-2-(4-(4-(4-methoxybenzylidene)-2-methyl-5-oxo-4,5-dihydro-1H-imidazol-1-yl)phenyl)acetamide]
- Mean Final score (Kinase score): 2.326
- Mean Kinase Statistic: -1.184
- Mean Significance Score: 1.983
- Mean Specificity Score: 0.3263
